Measurements published in PubChem BioAssay (NCI).
Several values for one entry are separate records, joined by “and”; a condition that tells them apart may be missing. Equal values may be shown once.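 Assay format: 96-well plates, 48-hour exposure. Here, GI50 denotes the concentration required for 50% inhibition of growth. TGI is the concentration that stops growth completely.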

Key:
Experiment in all cases: NCI-60 cell line screen, 48 h
[1] = system: HCT-116 colon
[2] = system: HCT-15 colon
[3] = system: IGROV1 ovarian
[4] = system: MALME-3M melanoma
[5] = system: OVCAR-3 ovarian
[6] = system: SF-539 CNS
[7] = system: SK-MEL-5 melanoma
[8] = system: SN12C renal
[9] = system: T-47D breast
[10] = system: TK-10 renal

| Compound | GI50 [1] [µM] | TGI [1] [µM] | GI50 [2] [µM] | TGI [2] [µM] | GI50 [3] [µM] | TGI [3] [µM] | GI50 [4] [µM] | TGI [4] | GI50 [5] [µM] | TGI [5] [µM] | GI50 [6] [µM] | TGI [6] [µM] | GI50 [7] [µM] | TGI [7] [µM] | GI50 [8] [µM] | TGI [8] [µM] | GI50 [9] [µM] | TGI [9] [µM] | GI50 [10] [µM] | TGI [10] [µM] |
| --- | --- | --- | --- | --- | --- | --- | --- | --- | --- | --- | --- | --- | --- | --- | --- | --- | --- | --- | --- | --- |
| Cn1c(=O)c(Oc2ccc(F)cc2)cc2cnc(NC3CCOCC3)nc21 | > 25 | > 25 | > 25 | > 25 | > 25 | > 25 | > 25 | > 25 µM | > 25 | > 25 | > 25 | > 25 | > 25 | > 25 | > 25 | > 25 | 22.2 | > 25 | > 25 | > 25 |
| Oc1ccc(Nc2c3ccccc3nc3occ(Cl)c23)cc1 | 5.85 | > 100 | 4.77 | > 100 | 1.19 | 5.32 | 2.13 | 8.62 µM | 3.12 | 8.76 | – | – | 3.92 | 18.3 | 2.89 | 26.4 | 6.49 | > 100 | 6.46 | 50.8 |
| CC1CCN(C(=O)OCc2nc3nc(Cl)nc(N4CCOCC4)c3[nH]2)CC1 | 0.209 | 1.16 | 0.634 | 2.22 | 0.529 | 1.83 | 1.5 | 2.86 µM | 0.438 | 1.71 | 1.11 | 2.32 | 1.74 | 3.14 | 0.865 | 2.16 | 1.76 | 4.89 | 1.82 | 3.44 |
| CC(C)=CCc1cc(O)cc2c1OC(C=C(C)C)C1=C2C(=O)C2=C(C1=O)S(=O)(=O)CCN2 (stereo unspecified) | 2.97 | 7.14 | 5.8 | > 16.7 | 3.23 | 9.17 | 1.69 | 3.64 µM | 1.18 | 14.8 | 2.8 | 5.09 | 2.75 | 5.05 | 2.7 | 5.45 | 3.57 | 12.7 | > 16.7 | > 16.7 |
| O=[N+]([O-])c1cccc2ccc(N/N=C/c3ccccc3O)nc12 | 2.19 | > 100 | > 100 | > 100 | – | – | > 100 | > 100 µM | 4.48 | > 100 | > 100 | > 100 | > 100 | > 100 | > 100 | > 100 | 1.07 | > 100 | > 100 | > 100 |
| COc1cccc2c1C(=O)c1c(O)c3c(c(O)c1C2=O)C[C@@](O)(/C(C)=N/NC(=O)c1ccc(Cl)cc1)C[C@@H]3OC1CC(N)C(O)C(C)O1 (stereo partly specified) | 0.147 | 1.49 | 1.02 | 12.6 | 0.138 | 2.74 | – | – | 0.395 | 2.4 | 0.21 | 0.747 | – | – | 0.156 | 3 | 0.163 | 1.79 | 0.178 | 0.723 |
| CCOC(=O)/C=C/c1ccc(C#Cc2ccccc2)cc1 | > 100 | > 100 | > 100 | > 100 | – | – | 98.3 | > 100 µM | > 100 | > 100 | 1.54 | > 100 | 68.5 | > 100 | > 100 | > 100 | 86.8 | > 100 | > 100 | > 100 |
| O=C1c2cc3c(cc2-c2c1c1cc(Cl)c(Cl)cc1c(=O)n2C[C@H](O)CO)OCO3 | – | – | 0.0127 | 14.3 | 0.0219 | 2.08 | 0.0154 | 0.156 µM | 0.0157 | 0.0769 | < 0.01 | 0.0175 | < 0.01 | 0.0134 | < 0.01 | 0.122 | < 0.01 | 0.0334 | 0.0578 | 0.934 |
| COc1ccc(-c2nsc3c2NC(=O)CC3c2cccc(OC)c2)cc1 (stereo unspecified) | 0.531 | > 100 | 0.527 | > 100 | 2.18 | > 100 | 2.32 | 66.1 µM | 0.705 | 4.41 | 1.87 | 6.7 | 0.445 | 17.5 | 3.81 | > 100 | 0.871 | > 100 | – | – |
| O=C(Nc1ccc(Cl)c(C(F)(F)F)c1)c1ccc(NC2=C(Cl)C(=O)N(Cc3ccccc3)C2=O)cc1 | 13.9 | 27.2 | – | – | 1.59 | 3.92 | – | – | 18.6 | 37.9 | 8.92 | 23.9 | – | – | 17.9 | 31.8 | 6.11 | > 100 | 19.4 | 34.4 |
| O=S(=O)(Nc1ccc(Cl)cc1Cl)c1ccc(-c2cnc(C3CC3)o2)cc1 | 0.431 | > 65.4 | 0.445 | 40.4 | 0.647 | > 73.3 | – | – | 0.439 | 15 | 0.414 | 7.55 | 0.555 | 14.1 | 1.4 | 46.2 | 0.475 | > 85.8 | 5.03 | 79.6 |
| CC1(Br)Cc2ccccc2C1=O (stereo unspecified) | 2.01 | 5.02 | – | – | – | 15 | – | 9.62 µM and 14.1 µM | 4.11 | 14.5 | – | 16.8 | 2.75 | 12.5 | 4.55 | 14.8 | 4.18 | 21.2 | – | 29.8 |
| COc1ccc(/C(=C\C=C(C#N)C#N)Sc2nc3ccccc3s2)cc1 | – | – | – | – | 10 | 46.4 | – | – | 8.26 | 17.7 | 1.19 | 2.59 | 7.87 | 16.5 | 7.06 | 32.8 | 6.82 | 27 | 5.43 | 11.8 |
